From patent publication US5059624A, “Guanidine derivatives having hypotensive activity, composition containing them and process for obtaining them” (Consiglio Nazionale Delle Ricerche, priority 1988, dated 1991)
Read-outs that look alike come from different tables or passages of the source.

Test system: male Wistar rats
Method: In order to check its activity, diguanido-II was dissolved in a 0.9 % sodium chloride solution and administered through "rapid" i.v. route in male Wistar rats, under general anaesthesia obtained by means of 10% ethyl urethan (i ml/hg).
The active ingredients called guanido-III, -IV, -V, as well as agmatine and galegine, were also tested, after having been administered through "rapid" i.v. route in male Wistar rats (weighing average 280±5 g) under general anaesthesia obtained by means of 10% ethyl uretan (1 ml/hg, i.p.). The general experimental conditions were exactly the same as previously mentioned for guanido-I and diguanido-II, so that the cardiovascular and respiratory effects could be compared.
The parameters measured are as follows: systolic and diastolic systemic arterial pressure (AP), heart rate (HR), maximum rate of increase in the left ventricular isovolumetric pressure (dp/dt), respiratory frequency (RF) and tidal volume (TV). The doses (in μg/kg body weight, referred to the active substance) varied from 50 μg/kg to 6,400 μg/kg (ratio=2.0); in some cases higher does have been employed.

NCCCCN=C(N)N [agmatine, 4-(aminobutyl)guanidine, reference compound]
Δ AP DIAST (200 μg/kg i.v.): -4 ± 1 mmHg
Δ AP SYST (200 μg/kg i.v.): -5 ± 2 mmHg
Δ HR (200 μg/kg i.v.): 0 beats/min
Δ RF (200 μg/kg i.v.): +9 ± 3%
Δ TV (200 μg/kg i.v.): +3 ± 1%
Δ dp/dt (200 μg/kg i.v.): +300 ± 89 mmHg/sec
Δ AP DIAST (400 μg/kg i.v.): -6 ± 2 mmHg
Δ AP SYST (400 μg/kg i.v.): -6 ± 1 mmHg
Δ HR (400 μg/kg i.v.): 0 beats/min
Δ RF (400 μg/kg i.v.): +11 ± 4%
Δ TV (400 μg/kg i.v.): +12 ± 4%
Δ dp/dt (400 μg/kg i.v.): +334 ± 54 mmHg/sec
Δ AP DIAST (800 μg/kg i.v.): -8 ± 2 mmHg
Δ AP SYST (800 μg/kg i.v.): -8 ± 2 mmHg
Δ HR (800 μg/kg i.v.): 0 beats/min
Δ RF (800 μg/kg i.v.): +12 ± 4%
Δ TV (800 μg/kg i.v.): +14 ± 2%
Δ dp/dt (800 μg/kg i.v.): +947 ± 131 mmHg/sec
Δ AP DIAST (1600 μg/kg i.v.): -10 ± 1 mmHg
Δ AP SYST (1600 μg/kg i.v.): -9 ± 3 mmHg
Δ HR (1600 μg/kg i.v.): 0 beats/min
Δ RF (1600 μg/kg i.v.): +11 ± 2%
Δ TV (1600 μg/kg i.v.): +25 ± 5%
Δ dp/dt (1600 μg/kg i.v.): +981 ± 94 mmHg/sec
Δ AP DIAST (3200 μg/kg i.v.): -11 ± 2 mmHg
Δ AP SYST (3200 μg/kg i.v.): -9 ± 2 mmHg
Δ HR (3200 μg/kg i.v.): -7 ± 2 beats/min
Δ RF (3200 μg/kg i.v.): +13 ± 4%
Δ TV (3200 μg/kg i.v.): +27 ± 4%
Δ dp/dt (3200 μg/kg i.v.): +1356 ± 164 mmHg/sec
Δ AP DIAST (6400 μg/kg i.v.): -13 ± 4 mmHg
Δ AP SYST (6400 μg/kg i.v.): -11 ± 4 mmHg
Δ HR (6400 μg/kg i.v.): -13 ± 5 beats/min
Δ RF (6400 μg/kg i.v.): +13 ± 5%
Δ TV (6400 μg/kg i.v.): +30 ± 7%
Δ dp/dt (6400 μg/kg i.v.): +3351 ± 417 mmHg/sec
Δ AP DIAST (12800 μg/kg i.v.): -18 ± 5 mmHg
Δ AP SYST (12800 μg/kg i.v.): -12 ± 2 mmHg
Δ HR (12800 μg/kg i.v.): -17 ± 2 beats/min
Δ RF (12800 μg/kg i.v.): +15 ± 2%
Δ TV (12800 μg/kg i.v.): +31 ± 7%
Δ dp/dt (12800 μg/kg i.v.): +2568 ± 432 mmHg/sec
Δ AP DIAST (25600 μg/kg i.v.): -23 ± 4 mmHg
Δ AP SYST (25600 μg/kg i.v.): -12 ± 3 mmHg
Δ HR (25600 μg/kg i.v.): -17 ± 7 beats/min
Δ RF (25600 μg/kg i.v.): +24 ± 4%
Δ TV (25600 μg/kg i.v.): +33 ± 9%
Δ dp/dt (25600 μg/kg i.v.): +3565 ± 813 mmHg/sec
Δ AP DIAST (51200 μg/kg i.v.): -34 ± 6 mmHg
Δ AP SYST (51200 μg/kg i.v.): -15 ± 1 mmHg
Δ HR (51200 μg/kg i.v.): -22 ± 1 beats/min
Δ RF (51200 μg/kg i.v.): +31 ± 7%
Δ TV (51200 μg/kg i.v.): +35 ± 6%
Δ dp/dt (51200 μg/kg i.v.): +5491 ± 869 mmHg/sec
cardiovascular and respiratory effects (in words) (i.v., rat): analogous to those induced by guanido-V., moreover, said active ingredient caused a constant increase in dp/dt, RF and TV
